Entries after “also recorded” stand apart in the source; their conditions may differ. Values belong to the compound of their own block, whether it stands above or below them.
Assays:
[1] = DPPH radical-scavenging activity; settings: 500 μM, 30 min in the dark
Protocol: For measuring the scavenging effect of analogs 1–12 on DPPH radicals, test samples (analogs 1–12 and ascorbic acid [positive reference standard]; final concentration: 500 μM) were mixed with a DPPH solution, and absorbance was measured at 517 nm after storing for 30 min in the dark to determine % DPPH radical-scavenging ability.
L-Ascorbic acid was used as a positive control. Test samples (analogs 1–12 and L-ascorbic acid; 5 mM, 20 μL) dissolved in DMSO were added to each well of a 96-well plate containing the DPPH methanol solution (0.2 mM, 180 μL), and the plate was placed in the dark at 20 °C for 30 min. The absorbance was recorded at 517 nm using a VE microplate reader to calculate DPPH radical-scavenging activity.

[2] = ABTS cation radical scavenging activity; settings: 100 μM, 2 min in the dark
Protocol: To measure the scavenging effects of analogs 1–12 on ABTS^+ radicals, ABTS was initially treated with potassium persulfate to yield ABTS^•+. The formed ABTS^+ radical solution was mixed with test samples (analogs 1–12 and Trolox [positive reference standard]; final concentration: 100 μM), and absorbance was measured at 732 nm after storing for 2 min in the dark to determine %ABTS^•+-scavenging ability.
ABTS^•+ was prepared by mixing equal amounts of ABTS (14 mM in H2O) and K2S2O8 (4.9 mM in H2O) and storing in the dark at 20 °C for 16 h. Prior to use, the absorbance of the prepared ABTS^•+ solution was adjusted to 0.7 ± 0.02 at 732 nm by dilution with methanol. A cosolvent (EtOH:DMSO = 10:1 [v/v]) was used to prepare solutions of the test samples (analogs 1–12 and Trolox [positive reference standard]). All test samples were used at a final concentration of 100 μM. The test sample solution (10 μL) was mixed with the adjusted ABTS^•+ solution (90 μL) in each well of a 96-well plate, and the mixture was kept in the dark at 20 °C for 2 min. The absorbance was recorded at 732 nm at 1 min intervals for 10 min using a VE microplate reader. The percentage of radical-scavenging activity was calculated using the formula % radical-scavenging activity = [(Abscontrol − Abssample)/Abscontrol] × 100, where Abssample and Abscontrol are absorbances of the sample and control, respectively.

mushroom tyrosinase = mushroom tyrosinase (Agaricus bisporus, UniProt C7FF04); experiment: Mushroom tyrosinase inhibition assay (dopachrome, 475 nm); format: biochemical; settings: substrate L-tyrosine
Protocol: The plate was placed at 37 °C for 30 min, and well absorbance was measured at 475 nm to determine the generated dopachrome amounts in each well using a VersaMax® Elisa (VE) microplate reader (Molecular Devices, San Jose, CA, USA).

B16F10 cells [3] = experiment: Cytotoxicity assay on B16F10 murine melanoma cells (EZ-Cytox); format: cell-based; settings: 1, 2, 5 and 10 μM, 72 h
Protocol: Cell viability for analogs 1–3 was examined on B16F10 cells at 1, 2, 5, and 10 μM concentrations for 72 h.
The influence of (Z)-BBTT analogs 1–3 on B16F10 cell viability was studied using an EZ-Cytox solution (EZ-1000®, DoGenBio, Seoul, Republic of Korea). B16F10 cells were seeded at a density of 1 × 10^3 in each well of a 96-well plate, and the plate was cultivated under normal cell culture conditions for 24 h. Analogs were added to each well at concentrations of 0, 1, 2, 5, and 10 μM, and then cells were cultivated for 72 h under normal cell culture conditions. An aliquot (10 μL) of the EZ-Cytox solution was added to each well and cultivated for 2 h. Well absorbance was recorded at 450 nm using a VE microplate reader to calculate cell viability.

B16F10 cells [4] = experiment: Cellular melanin level measurement in B16F10 cells; format: cell-based, murine; settings: 72 h; for effect on stimulator-induced increase in melanin contents: 2, 5 and 10 μM, concentration-dependent
Protocol: Stimulators comprising 1 μM α-melanocyte-stimulating hormone (α-MSH) and 200 μM 3-isobutyl-1-methylxanthine (IBMX) were administered 1 h after test sample treatment. The effects of analogs 1 and 3 on melanin production were determined by measuring the optical density at 405 nm after 72 h of treatment.
B16F10 cells were seeded at a density of 5000 per well of a 6-well plate, and the plate was cultivated under normal cell culture conditions for 24 h. […] In addition, 200 μM IBMX and 1 μM α-MSH (Alomone Labs™, Jerusalem, Israel) were added to each well and cultivated for 72 h under the normal cell culture conditions. To determine the cellular melanin levels, 1N–NaOH solution (100 μL) was added to each well and then kept at 60 °C for 1 h to lyse the cells. The cell lysates were washed twice with phosphate-buffered saline (PBS) and transferred to a 96-well plate, and the absorbance was recorded at 405 nm using a VE microplate reader to determine the cellular melanin content.

[5] = biological target: T1, B16F10 cellular tyrosinase (Mus musculus, UniProt P11344); experiment: Cellular tyrosinase activity measurement in B16F10 cells; format: cell-based, murine; settings: α-MSH + IBMX, 72 h; for inhibition of cellular tyrosinase activity compared with kojic acid: 10 μM; for effect on stimulator-enhanced cellular tyrosinase activity: 2, 5 and 10 μM, concentration-dependent
T1 construct: endogenous in cells; host or cells: B16F10 murine melanoma cells stimulated with α-MSH and IBMX
T1 sequence (P11344 19-533): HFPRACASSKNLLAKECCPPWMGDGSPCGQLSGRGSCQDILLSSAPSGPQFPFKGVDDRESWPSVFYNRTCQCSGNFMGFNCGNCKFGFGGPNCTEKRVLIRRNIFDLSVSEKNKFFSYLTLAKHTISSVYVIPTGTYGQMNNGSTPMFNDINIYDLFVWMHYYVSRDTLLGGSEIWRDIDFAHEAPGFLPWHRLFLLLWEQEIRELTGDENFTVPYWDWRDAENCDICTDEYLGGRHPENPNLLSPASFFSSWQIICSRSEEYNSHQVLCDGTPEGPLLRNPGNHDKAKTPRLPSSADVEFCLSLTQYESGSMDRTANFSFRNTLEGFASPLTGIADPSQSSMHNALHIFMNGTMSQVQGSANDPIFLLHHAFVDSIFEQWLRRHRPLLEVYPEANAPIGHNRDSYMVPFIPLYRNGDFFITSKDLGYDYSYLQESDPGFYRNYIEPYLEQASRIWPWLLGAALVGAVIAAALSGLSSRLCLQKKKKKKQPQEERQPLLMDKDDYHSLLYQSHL
Protocol: The cellular tyrosinase inhibitory activity of the test samples was determined by measuring their optical density at 475 nm 72 h after test sample treatment.
B16F10 cells were seeded at a density of 5000 per well of a 6-well plate, and the plate was cultivated under normal cell culture conditions for 24 h. […] Stimulators (200 μM IBMX and 1 μM α-MSH) were added to each well and cultivated for 72 h under normal cell culture conditions. To determine cellular tyrosinase activity, the cells were washed twice with PBS, treated with lysis buffer solution (100 μL) comprising 50 mM phosphate buffer (pH 6.5) (90 μL), 2 mM phenylmethanesulfonyl fluoride (5 μL), and 20% Triton X-100 (5 μL), and incubated at −80 °C for 30 min. After centrifugation (10,000× g, 4 °C, and 10 min), the supernatants (80 μL each) were transferred to each well of a 96-well plate, then 10 mM L-DOPA (20 μL) was added to each well. The absorbance was measured at 475 nm at 1 min intervals for 10 min using a VE microplate reader to determine cellular tyrosinase activity.

B16F10 cell tyrosinase = biological target: T2, B16F10 cell tyrosinase (Mus musculus, UniProt P11344); experiment: In situ cellular tyrosinase activity in B16F10 cells (L-DOPA staining); format: cell-based, murine; settings: for relative dark area of cells compared with kojic acid at the same concentration: 10 μM, L-DOPA staining; for number of cells strongly stained with melanin: kojic acid 10 μM, analogs 2, 5 and 10 μM, α-MSH + IBMX, 72 h
T2 construct: endogenous in cells; host or cells: B16F10 murine melanoma cells stimulated with α-MSH and IBMX
T2 sequence (P11344 19-533): T1 sequence (P11344 19-533)
Protocol: To identify the in situ cellular tyrosinase inhibitory activity of analogs 1 and 3, B16F10 cells and L-DOPA were used as the experimental target cells and substrate for melanin synthesis, respectively. […] B16F10 cells were photographed after 2 h of treatment with excess L-DOPA, and the darkness of the cells was measured using the CS analyzer program (ATTO, Tokyo, Japan). Analogs 1 and 3 were used at 2, 5, and 10 μM.
After 1 h, the cells were exposed to 1 μM α-MSH and 200 μM IBMX and cultivated under normal cell culture conditions for 72 h. Cultured cells were fixed using a 4% paraformaldehyde solution for 40 min, washed twice with PBS, and permeabilized using 0.1% Triton X-100 for 2 min. L-DOPA solution (2 mM; 500 μL) was added to each well after washing twice with PBS. After the plate was placed for 2 h at 37 °C, the images for cell staining were acquired using a camera attached to a microscope (Motic, Hong Kong).

HaCaT cells = experiment: Cytotoxicity assay on HaCaT cells (EZ-Cytox); format: cell-based, human; settings: 2, 5, 10 and 20 μM, 72 h
Protocol: As keratinocytes are one of the major cells that constitute the epidermis, the effects of analogs 1–3 on HaCaT (immortalized human keratinocytes) cell viability were investigated. Analogs 1–3 were tested at concentrations of 0, 2, 5, 10, and 20 μM, and cell viability was determined 72 h after incubation.
The effect of (Z)-BBTT analogs 1–3 on HaCaT cell viability was examined using EZ-Cytox solution. HaCaT cells were seeded at a density of 1 × 10^3 in each well of a 96-well plate, and the plate was cultivated under normal cell culture conditions for 24 h. Analogs 1–3 were added to each well at concentrations of 0, 2, 5, 10, and 20 μM and then cultivated for 72 h under normal cell culture conditions. An aliquot (10 μL) of the EZ-Cytox solution was added to each well and cultivated for 2 h. Well absorbance was recorded at 450 nm using a VE microplate reader to calculate HaCaT cell viability.

[6] = ROS-scavenging activity (SIN-1, DCFH); settings: 40 μM, SIN-1 10 μM
Protocol: UV-A radiation induces ROS generation substantially, and oxidative stress accelerates melanin formation in organisms. Thus, the ROS-scavenging ability of (Z)-BBTT analogs was examined to determine whether these analogs have an auxiliary ability to scavenge ROS. 3-Morpholinosydnonimine (SIN-1; 10 μM) was used as a ROS generating substance, and Trolox (40 μM) was used as a positive reference standard.
The test samples ((Z)-BBTT analogs 1–12 and Trolox [positive reference standard]) and 3-morpholinosydnonimine (SIN-1) were dissolved in DMSO and PBS, respectively. To prepare 2′,7′-dichlorodihydrofluorescein (DCFH) solution, PBS (50 mM; 4.9 mL, pH 7.4) and DCFH diacetate (2.5 mM; 0.05 mL) were mixed with esterase (15 units/10 mL; 0.05 mL). After storage for 30 min at 20 °C, the mixture was placed in the dark until further use. SIN-1 (10 µL) was added to each well of a 96-well black plate containing PBS (180 µL) and test sample (10 µL), and the plate was placed in the dark for 5 min. The prepared DCFH solution (50 µL) was added to each well of the black plate. The fluorescence of each well was recorded at 535 nm using a microplate reader (Berthold Advances GmbH & Co., Bad Wildbad, Germany) at an excitation wavelength of 485 nm. The test samples and SIN-1 were tested at final concentrations of 40 and 10 μM, respectively.

Sequence of mushroom tyrosinase (C7FF04 2-392): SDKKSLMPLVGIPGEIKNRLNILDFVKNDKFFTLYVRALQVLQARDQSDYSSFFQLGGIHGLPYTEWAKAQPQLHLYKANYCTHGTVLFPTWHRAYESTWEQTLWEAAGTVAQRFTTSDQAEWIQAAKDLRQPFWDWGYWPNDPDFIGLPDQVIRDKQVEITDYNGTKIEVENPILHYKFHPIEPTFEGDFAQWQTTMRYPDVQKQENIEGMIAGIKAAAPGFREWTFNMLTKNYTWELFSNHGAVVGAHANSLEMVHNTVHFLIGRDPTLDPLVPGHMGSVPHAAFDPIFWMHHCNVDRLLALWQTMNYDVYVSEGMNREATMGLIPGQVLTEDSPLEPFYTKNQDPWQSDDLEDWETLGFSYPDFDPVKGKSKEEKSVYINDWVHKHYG

Structure (SMILES): O=C1O[C@H]([C@@H](O)CO)C(O)=C1O [Ascorbic acid, L-Ascorbic acid, reference compound]
% DPPH radical-scavenging [1]: 97%

Structure (SMILES): COc1ccc(/C=C2\SC(=S)N(Cc3ccccc3)C2=O)cc1O [Compound 5, (Z)-3-Benzyl-5-(3-hydroxy-4-methoxybenzylidene)-2-thioxothiazolidin-4-one]
% ABTS^•+ scavenging [2]: 71% | % DPPH radical-scavenging [1]: 17%

inhibitory potency relative to kojic acid (IC50 ratio) (mushroom tyrosinase): four-fold lower | inhibition of cellular tyrosinase activity compared with kojic acid [5]: more strongly than kojic acid | effect on stimulator-enhanced cellular tyrosinase activity [5]: significantly decreased
Structure (SMILES): O=C1/C(=C/c2ccc(O)cc2)SC(=S)N1Cc1ccccc1 [Compound 1, (Z)-3-Benzyl-5-(4-hydroxybenzylidene)-2-thioxothiazolidin-4-one]
cytotoxicity to B16F10 cells (B16F10 cells [3]): not cytotoxic; also recorded: no perceptible cytotoxicity | stimulator-induced increased melanin content reduced by (fold) (B16F10 cells [4]; 10 μM, α-MSH 1 μM + IBMX 200 μM, stimulators alone 5.0-fold increase): 1.9 fold | effect on stimulator-induced increase in melanin contents (B16F10 cells [4]; α-MSH + IBMX): significantly decreased | relative dark area of cells compared with kojic acid at the same concentration (B16F10 cell tyrosinase): significantly less than that of kojic acid | number of cells strongly stained with melanin (B16F10 cell tyrosinase): reduced the number of strongly stained cells in a concentration-dependent manner | cytotoxicity to HaCaT cells (HaCaT cells): no perceptible cytotoxicity

inhibition of cellular tyrosinase activity compared with kojic acid [5]: more strongly than kojic acid | effect on stimulator-enhanced cellular tyrosinase activity [5]: significantly decreased
Structure (SMILES): O=C1/C(=C/c2ccc(O)cc2O)SC(=S)N1Cc1ccccc1 [Compound 3, (Z)-3-Benzyl-5-(2,4-dihydroxybenzylidene)-2-thioxothiazolidin-4-one]
cytotoxicity to B16F10 cells (B16F10 cells [3]): not cytotoxic; also recorded: no perceptible cytotoxicity | inhibition of melanin production compared with kojic acid at the same concentration (B16F10 cells [4]; 10 μM, α-MSH + IBMX): significantly more potently than kojic acid | effect on stimulator-induced increase in melanin contents (B16F10 cells [4]; α-MSH + IBMX): significantly decreased | melanin content compared with 10 μM kojic acid (B16F10 cells [4]; analog at 2 μM, α-MSH + IBMX): more weakly than 10 μM kojic acid | relative dark area of cells compared with kojic acid at the same concentration (B16F10 cell tyrosinase): significantly less than that of kojic acid | number of cells strongly stained with melanin (B16F10 cell tyrosinase): reduced the number of strongly stained cells in a concentration-dependent manner | % ABTS^•+ scavenging [2]: 98% | ROS-scavenging activity (SIN-1-induced ROS levels) [6]: equipotent to that of Trolox | cytotoxicity to HaCaT cells (HaCaT cells): no perceptible cytotoxicity

Structure (SMILES): O=C1/C(=C/c2ccc(O)c(O)c2)SC(=S)N1Cc1ccccc1 [Compound 2, (Z)-3-Benzyl-5-(3,4-dihydroxybenzylidene)-2-thioxothiazolidin-4-one]
cytotoxicity to B16F10 cells (B16F10 cells [3]): cytotoxic at all tested concentrations | % ABTS^•+ scavenging [2]: 99% | % DPPH radical-scavenging [1]: 95% | ROS-scavenging activity (SIN-1-induced ROS levels) [6]: greater ROS-scavenging potency than Trolox

Structure (SMILES): Cc1c(C)c2c(c(C)c1O)CCC(C)(C(=O)O)O2 (centres unmarked) [Trolox, reference compound]
% ABTS^•+ scavenging [2]: 99% | ROS-scavenging activity (SIN-1-induced ROS levels) [6]: significantly reduced

Source: article PMC11820736, “Design, Synthesis, and Anti-Tyrosinase, Anti-Melanogenic, and Antioxidant Activities of Novel (Z)-3-Benzyl-5-Benzylidene-2-Thioxothiazolidin-4-One Analogs” (Molecules, 2025)
